Data reported in article PMC11026381, “Late-stage meta-C–H alkylation of pharmaceuticals to modulate biological properties and expedite molecular optimisation in a single step” (Nature Communications, 2024).
Converted amounts (≈) assume the structure as drawn.

Assays:
[1] = Fraction unbound in human plasma (Prot. Bind.), equilibrium dialysis; format: in vitro ADME; details: 5 μM, dialysis at 37 °C for 18 hours
Description: (§1) 5. Pharmaceutically relevant properties modulation
(§2) Product analogues 5e, 6a-6k obtained after late-stage meta-C–H alkylation of the pharmaceutically active compound Emapunil (4e) were subjected to a range of fundamental in vitro drug discovery assays. To prevent hydrolysis of ester groups present on these analogues during biological testing (in order to compare the clearance and metabolic stability between these drug derivatives), their corresponding free acids 5e’, 6a’-6k’ were synthesised (see page S54) and subjected to similar assays.
(§3) The experimental methods used for these physicochemical & drug metabolism and pharmacokinetics (DMPK) assays are described below 11. […]
Fraction unbound in human plasma (Prot. Bind.)
Equilibrium dialysis of compounds was used to assess the fraction unbound in human plasma. Stock solutions of compounds dissolved in DMSO were pooled into cassettes with up to 10 compounds in each cassette with a concentration of 1 mM. The pooled stock solutions were diluted in plasma to a compound concentration of 5 μM. Warfarin, propranolol and metoprolol were used as reference compounds in each run. The equilibrium dialysis device (RED, Thermo Fischer Scientific Inc., Rockford, USA) was used for dialysis against phosphate buffer (pH 7.4) at 37 °C for 18 hours. Calibration curves ranging from 0.001 to 7 μM were made using aliquots of the 7 μM spiked plasma pools that were transferred to a new plate followed by serial dilutions with blank plasma. Calibration curve samples and dialysis samples were precipitated with MeCN and after centrifugation, supernatants were removed and analysed using LC-MS/MS (Waters Xevo-TQS). Fraction unbound in the incubation was calculated as the concentration in the media buffer sample divided by the concentration in the plasma sample. The fraction unbound was reported as the median value.

[2] = Metabolic stability in male Han Wistar rat hepatocytes (CLint Rat Hep.); format: in vitro ADME; details: measured on the labelled compound itself, 1 μM, 10^6 viable cells/mL, 37 °C, n = 1
Method: Metabolic stability in male Han Wistar rat hepatocytes (CLint Rat Hep.) Hepatocyte metabolic stability was determined in accordance with the method described by Jacobson et al14. Cryopreserved hepatocytes at a concentration of 10 6 viable cells/mL were used. After thawing, hepatocytes were incubated for 10 min to warm to 37 °C, and compounds dissolved in MeCN were […]
incubation system was mixed and 20 μL aliquots were transferred at each time point to wells in a separate plate filled with 80 μL MeCN to stop the reaction. The quenching plate was then vortexed followed by centrifugation, and supernatants were analysed by LC-MS/MS (Waters Xevo-TQS). Peak areas were determined from extracted ion chromatograms, and the in vitro intrinsic clearance (in vitro CLint, in μL/min/10^6 cells) of parent compound was calculated from the slope in the regression analysis of the natural logarithm of parent concentration vs. time curve. Rat Hepatocytes (Cryosuspension, Male Wistar Hannover ) were harvested and s upplied by BioIVT (Product No. M00065, Lot No. DVO).
(§4) The modulation of pharmaceutically relevant properties on meta-C–H alkylation is shown below in Supplementary Fig. 68, with a selection of physicochemical and DMPK data including solubility , LogD, human plasma protein binding (Prot. Bind.) and intrinsic clearance (CLint) in human liver microsomes (HLM) or rat hepatocytes (Rat Hep.) .

[3] = Thermodynamic solubility, shake-flask approach, phosphate buffer pH 7.4; format: physicochemical; details: pH 7.4, phosphate buffer 0.1 M, 20 °C, n = 1
Description: as §1, §2
The experimental methods used for these physicochemical & drug metabolism and pharmacokinetics (DMPK) assays are described below 11.
This method measures the thermodynamic solubility of compounds based on a shake-flask approach12.
The nature of the solid state was unknown in these experiments and may be subject to variability. The compounds were dissolved in DMSO (30 μL, 10 mM) in glass vials, and were dried using a Genevac vacuum evaporator (Genevac Ltd, Ipswich, UK). When the samples were dry, 300 μL of phosphate buffer (0.1 M, pH 7.4) was added to the glass vials. The vials were put on an Edmund Bühler shaker (Edmund Bühler GmbH, Hechingen, Germany) at 20 °C for 18 hours. Samples were filtered through a Whatman GF/B 96-well filter and 20 μL of filtrated samples were transferred to separate wells in a plate containing 180 μL MeCN/H2O (1:1). Standards were prepared by diluting the 10 mM compound solutions with MeCN/H2O (1:1) to 200 μM. Three further dilution steps of 10 times were applied to both the samples and standards and they were all analy sed by LC-MS/MS (Waters Xevo-TQS). Solubility was determined using the integrated peak areas of the samples in the linear MS response range. […]

[4] = Octanol/water partitioning (LogD), shake-flask method; format: physicochemical; details: n = 1
Description: as §1, §2, §3
Octanol/water partitioning (LogD)
Partitioning of compounds between 1 -octanol and phosphate buffer (0.1 M, pH 7.4) at 20 °C were determined using a modified version of the shake -flask method described by Leo et al13. Compounds were dissolved in a 96 -well plate, in 400 μL octanol, and 400 μL of buffer was added to each well. The plate was vigorously stirred for 5 min and then put on an Edmund Bühler shaker (Edmund Bühler GmbH, Hechingen, Germany) at 20 °C for 18 hours. Aliquots of 5 μL octanol were transferred and diluted with 495 μL MeCN/H2O (1:1) and, to avoid contamination of the buffer, the rest of the octanol was removed before 150 μL of buffer samples were transferred. Octanol and buffer samples were diluted with MeCN/H2O (1:1) in four steps of 10 times to yield octanol samples diluted 10 2 to 106 times and buffer samples diluted 1 to 104 times. LC-MS/MS (Waters Xevo-TQS) was used for analysis, and distribution coefficient at pH 7.4 (LogD7.4) was calculated from the integrated peak areas of the samples in the linear MS response range. LogD7.4 results were reported as median values. […]

[5] = Metabolic stability in human liver microsomes (CLint HLM); format: in vitro ADME; details: 1 mg/mL microsomal protein, 1 mM NADPH, 37 °C; for microsomal CLint at 1 μM: both sexes, human, liver microsomes, pH 7.4, measured on the labelled compound itself, n = 1, read-out: CLint HLM (intrinsic clearance in human liver microsomes); for CLint HLM (intrinsic clearance in human liver microsomes): measured on the labelled compound itself, 1 μM, n = 1
Method: Metabolic stability in human liver microsomes (CLint HLM)
Human liver microsomes were defrosted on ice and diluted to 1 mg/mL of microsomal protein in phosphate buffer (0.1 M, pH 7.4). Compounds at 1 μM were incubated with the liver microsome suspensions and 1 mM NADPH at 37 °C in a 96-well plate. At 0.5, 5, 10, 15, 20 and 30 min, aliquots of 30 μL were transferred to a 96-well plate containing 120 μL MeCN. This plate was centrifuged for 20 min and supernatant was removed and diluted with H2O (1:1) before analysis by LC-MS/MS (Waters Xevo-TQS). Peak areas were determined from extracted ion chromatograms, and the in vitro intrinsic clearance (in vitro CLint, in μL/min/mg microsomal protein) of parent compound was calculated from the slope in the regression analysis of the natural logarithm of parent concentration vs. time curve.
Human Liver Microsomes (InVitroCYPTM 150-Donor, Mixed Gender) were harvested and supplied by BioIVT (Product No. X008070, Lot No. QQY). […]
as §4

[6] = aqueous buffer, thermodynamic from solid
[7] = 1-octanol / phosphate buffer pH 7.4, 20 °C
[8] = 1-octanol/phosphate buffer, pH 7.4, 1-octanol / phosphate buffer pH 7.4, 20 °C

SMILES | Prot. Bind. (% free), human plasma protein binding ([1]; n = 1) [% free] | Prot. Bind. (% free), human plasma protein binding ([1]; n = 1, listed as 6g’) [% free] | CLint Rat Hep. (intrinsic clearance in rat hepatocytes) [2] [μL/min/10^6] | CLint Rat Hep. (intrinsic clearance in rat hepatocytes) ([2]; listed as 6g’) [μL/min/10^6] | solubility at 18 h [3, 6] [µM] | solubility at 18 h [3] [µM] | LogD (octanol) [4, 7] | logD [4, 7] | microsomal CLint at 1 μM [5] [µL/min/mg] | CLint HLM (intrinsic clearance in human liver microsomes) [5] [µL/min/mg] | CLint Rat Hep. (intrinsic clearance in rat hepatocytes) ([2]; listed as 6h’) [μL/min/10^6] | logD [4, 8] | Prot. Bind. (% free), human plasma protein binding ([1]; n = 1, listed as 6i’) [% free] | CLint Rat Hep. (intrinsic clearance in rat hepatocytes) ([2]; listed as 6i’) [μL/min/10^6] | Prot. Bind. (% free), human plasma protein binding ([1]; n = 1, listed as 6j’) [% free] | CLint Rat Hep. (intrinsic clearance in rat hepatocytes) ([2]; listed as 6j’) [μL/min/10^6] | CLint Rat Hep. (intrinsic clearance in rat hepatocytes) ([2]; listed as 6k’) [μL/min/10^6]
CCOP(=O)(OCC)C(F)(F)c1cccc(-c2ncc3c(n2)n(CC(=O)N(CC)Cc2ccccc2)c(=O)n3C)c1 [6g] | 2.0 | 3.7 | > 300 | 4.2 | 46 (≈ 27 µg/mL) | > 1000 | -0.8 | 4.4 | > 300 | < 3.0 | – | – | – | – | – | – | –
CCOC(=O)C1(c2cccc(-c3ncc4c(n3)n(CC(=O)N(CC)Cc3ccccc3)c(=O)n4C)c2)COC1 [6h] | 14.0 | – | > 300 | – | 58 (≈ 30.7 µg/mL) | > 1000 | -1.0 | – | > 300 | 4.6 | 19.3 | 3.1 | – | – | – | – | –
CCN(Cc1ccccc1)C(=O)Cn1c(=O)n(C)c2cnc(-c3cccc(C4(C(=O)OC)CCOC4)c3)nc21 (stereo not shown) [6i] | 7.8 | – | > 300 | – | 104 (≈ 55.1 µg/mL) | > 1000 | -0.7 | – | > 300 | < 3.0 | – | 2.9 | 5.9 | 12.9 | – | – | –
CCN(Cc1ccccc1)C(=O)Cn1c(=O)n(C)c2cnc(-c3cccc(C4(C(=O)OCc5ccccc5)CN(C(=O)OC(C)(C)C)C4)c3)nc21 [6j] | < 0.1 | – | > 300 | – | < 2.4 | 910 (≈ 629 µg/mL) | > 3.6 | – | > 300 | 7.6 | – | – | – | – | 0.8 | 17.2 | –
CCN(Cc1ccccc1)C(=O)Cn1c(=O)n(C)c2cnc(-c3cccc(C4(C(=O)OCc5ccccc5)CCN(C(=O)OC(C)(C)C)CC4)c3)nc21 [6k] | < 0.3 | – | 157 | – | 6 (≈ 4.31 µg/mL) | 806 (≈ 579 µg/mL) | > 3.2 | – | > 300 | 24.1 | – | – | – | – | – | – | 18.0
